Measurements as given in patent US8673950B2, “Dihydrooxazol-2-amine derivatives” (Hoffmann-LaRoche Inc., priority 2010, dated 2014).

Tests used:
rat TAAR1 = rat TAAR1 (Rattus norvegicus (Rat), UniProt Q923Y9); assay: Radioligand binding assay on rat TAAR1; details: rat TAAR1, membranes of stably transfected HEK-293 cells; second value of cell mouse/rat
Description: (§1) Construction of TAAR Expression Plasmids and Stably Transfected Cell Lines
(§2) For the construction of expression plasmids the coding sequences of human, rat and mouse TAAR 1 were amplified from genomic DNA essentially as described by Lindemann et al.. The Expand High Fidelity PCR System (Roche Diagnostics) was used with 1.5 mM Mg^2+ and purified PCR products were cloned into pCR2.1-TOPO cloning vector (Invitrogen) following the instructions of the manufacturer. PCR products were subcloned into the pIRESneo2 vector (BD Clontech, Palo Alto, Calif.), and expression vectors were sequence verified before introduction in cell lines.
(§3) HEK293 cells (ATCC # CRL-1573) were cultured essentially as described by Lindemann et al. (2005). For the generation of stably transfected cell lines HEK293 cells were transfected with the pIRESneo2 expression plasmids containing the TAAR coding sequences (described above) with Lipofectamine 2000 (Invitrogen) according to the instructions of the manufacturer, and 24 hrs post transfection the culture medium was supplemented with 1 mg/ml G418 (Sigma, Buchs, Switzerland). After a culture period of about 10 d clones were isolated, expanded and tested for responsiveness to trace amines (all compounds purchased from Sigma) with the cAMP Biotrak Enzyme immunoassay (EIA) System (Amersham) following the non-acetylation EIA procedure provided by the manufacturer.
Radioligand Binding Assay on Rat TAAR1
(§4) Membrane Preparation and Radioligand Binding.
HEK-293 cells stably expressing rat TAAR1 were maintained at 37° C. and 5% CO2 in DMEM high glucose medium, containing fetal calf serum (10%, heat inactivated for 30 min at 56° C.), penicillin/streptomycin (1%), and 375 μg/ml geneticin (Gibco). Cells were released from culture flasks using trypsin/EDTA, harvested, washed twice with ice-cold PBS (without Ca^2+ and Mg^2+), pelleted at 1'000 rpm for 5 min at 4° C., frozen and stored at −80° C. Frozen pellets were suspended in 20 ml HEPES-NaOH (20 mM, pH 7.4) containing 10 mM EDTA and homogenized with a Polytron (PT 6000, Kinematica) at 14'000 rpm for 20 s. The homogenate was centrifuged at 48'000×g for 30 min at 4° C. Subsequently, the supernatant was removed and discarded, and the pellet resuspended in 20 ml HEPES-NaOH (20 mM, pH 7.4) containing 0.1 mM EDTA using the Polytron (20 s at 14'000 rpm). This procedure was repeated and the final pellet resuspended in HEPES-NaOH containing 0.1 mM EDTA and homogenized using the Polytron. Typically, aliquots of 2 ml membrane portions were stored at −80° C. With each new membrane batch the dissociation constant (Kd) was determined via a saturation curve. […] Nonspecific binding was defined as the amount of ^3[H]-(S)-4-[(ethyl-phenyl-amino)-methyl]-4,5-dihydro-oxazol-2-ylamine bound in the presence of 10 μM unlabeled ligand. All compounds were tested at a broad range of concentrations (10 pM to 10 μM) in duplicates. […] The 96 deep well plates were incubated for 1 hr at 4° C. Incubations were terminated by rapid filtration through Unifilter-96 plates (Packard Instrument Company) and glass filters GF/C (Perkin Elmer) presoaked for 1 hr in polyethylenimine (0.3%) and washed 3 times with 1 ml of cold binding buffer. After addition of 45 μl of Microscint 40 (PerkinElmer) the Unifilter-96 plate was sealed and after 1 hr the radioactivity counted using a TopCount Microplate Scintillation Counter (Packard Instrument Company).

mouse TAAR1 = mouse TAAR1 (Mus musculus (Mouse), UniProt Q923Y8); assay: Radioligand binding assay on mouse TAAR1; details: mouse TAAR1, membranes of stably transfected HEK-293 cells; first value of cell mouse/rat
Chain of mouse TAAR1 (Q923Y8 whole entry): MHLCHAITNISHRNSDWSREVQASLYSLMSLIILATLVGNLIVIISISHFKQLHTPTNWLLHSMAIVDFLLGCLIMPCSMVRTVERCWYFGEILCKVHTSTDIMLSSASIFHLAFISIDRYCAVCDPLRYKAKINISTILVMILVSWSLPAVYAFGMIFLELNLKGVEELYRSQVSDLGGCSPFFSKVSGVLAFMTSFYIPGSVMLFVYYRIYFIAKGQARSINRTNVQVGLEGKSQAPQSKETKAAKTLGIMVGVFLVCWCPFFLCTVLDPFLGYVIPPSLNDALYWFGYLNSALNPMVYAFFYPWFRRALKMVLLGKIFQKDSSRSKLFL
Description: as §1, §2, §3
Radioligand Binding Assay on Mouse TAAR1
as §4
HEK-293 cells stably expressing mouse TAAR1 were maintained at 37° C. and 5% CO2 in DMEM high glucose medium, containing fetal calf serum (10%, heat inactivated for 30 min at 56° C.), penicillin/streptomycin (1%), and 375 μg/ml geneticin (Gibco). Cells were released from culture flasks using trypsin/EDTA, harvested, washed twice with ice-cold PBS (without Ca^2+ and Mg^2+), pelleted at 1'000 rpm for 5 min at 4° C., frozen and stored at −80° C. Frozen pellets were suspended in 20 ml HEPES-NaOH (20 mM, pH 7.4) containing 10 mM EDTA and homogenized with a Polytron (PT 6000, Kinematica) at 14'000 rpm for 20 s. The homogenate was centrifuged at 48'000×g for 30 min at 4° C. Subsequently, the supernatant was removed and discarded, and the pellet resuspended in 20 ml HEPES-NaOH (20 mM, pH 7.4) containing 0.1 mM EDTA using the Polytron (20 s at 14'000 rpm). This procedure was repeated and the final pellet resuspended in HEPES-NaOH containing 0.1 mM EDTA and homogenized using the Polytron. Typically, aliquots of 2 ml membrane portions were stored at −80° C. With each new membrane batch the dissociation constant (Kd) was determined via a saturation curve. The TAAR1 radioligand ^3[H]-(S)-4-[(ethyl-phenyl-amino)-methyl]-4,5-dihydro-oxazol-2-ylamine (described in WO 2008/098857) was used at a concentration equal to the calculated Kd value, that was usually around 0.7 nM, resulting in the binding of approximately 0.5% of the radioligand and a specific binding representing approximately 70% of the total binding. Nonspecific binding was defined as the amount of ^3[H]-(S)-4-[(ethyl-phenyl-amino)-methyl]-4,5-dihydro-oxazol-2-ylamine bound in the presence of 10 μM unlabeled ligand. All compounds were tested at a broad range of concentrations ([…]) in duplicates. […] The 96 deep well plates were incubated for 1 hr at 4° C. Incubations were terminated by rapid filtration through Unifilter-96 plates (Packard Instrument Company) and glass filters GF/C (Perkin Elmer) presoaked for 1 hr in polyethylenimine (0.3%) and washed 3 times with 1 ml of cold binding buffer. After addition of 45 μl of Microscint 40 (PerkinElmer) the Unifilter-96 plate was sealed and after 1 hr the radioactivity counted using a TopCount Microplate Scintillation Counter (Packard Instrument Company).

Chain of rat TAAR1 (Q923Y9 whole entry): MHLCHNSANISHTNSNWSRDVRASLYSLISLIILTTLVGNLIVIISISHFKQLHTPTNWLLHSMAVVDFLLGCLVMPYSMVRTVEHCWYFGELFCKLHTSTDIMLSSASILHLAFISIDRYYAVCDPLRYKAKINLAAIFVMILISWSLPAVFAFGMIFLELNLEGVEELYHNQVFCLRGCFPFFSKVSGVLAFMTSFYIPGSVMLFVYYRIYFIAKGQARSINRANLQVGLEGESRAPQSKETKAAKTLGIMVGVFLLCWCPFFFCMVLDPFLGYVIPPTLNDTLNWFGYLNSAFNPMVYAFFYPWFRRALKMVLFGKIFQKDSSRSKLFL

Row | Ki (rat TAAR1) [µM] | Ki (mouse TAAR1) [µM] | Structure (SMILES)
1 | 0.0084 | 0.0412 | NC1=N[C@@H](CCc2ccc(NC(c3ccc(C(F)(F)F)cc3)C(F)(F)F)cc2)CO1 (stereo partly drawn) [Example 67, (4S)-4-(4-(2,2,2-Trifluoro-1-(4-(trifluoromethyl)phenyl)ethylamino)phenethyl)-4,5-dihydrooxazol-2-amine]
2 | 0.0001 | 0.0002 | CCC(CC)c1cnc(Nc2ccc(CC[C@H]3COC(N)=N3)cc2)nc1 [Example 58, (S)-4-(4-(5-(Pentan-3-yl)pyrimidin-2-ylamino)phenethyl)-4,5-dihydrooxazol-2-amine]
3 | 0.0083 | 0.005 | CCOc1cnc(Nc2ccc(CC[C@H]3COC(N)=N3)cc2)nc1 [Example 55, {4-[2-((S)-2-Amino-4,5-dihydro-oxazol-4-yl)-ethyl]-phenyl}-(5-ethoxy-pyrimidin-2-yl)-amine]
4 | 0.0002 | 0.0002 | NC1=N[C@@H](CCc2ccc(Nc3ccc(C(F)(F)F)cc3)cc2)CO1 [Example 8, (S)-4-{2-[4-(4-Trifluoromethyl-phenylamino)-phenyl]-ethyl}-4,5-dihydro-oxazol-2-ylamine]
5 | 0.0007 | 0.007 | COc1cnc(Nc2ccc(CC[C@H]3COC(N)=N3)cc2)nc1 [Example 38, {4-[2-((8)-2-Amino-4,5-dihydro-oxazol-4-yl)-ethyl]-phenyl}-(5-methoxy-pyrimidin-2-yl)-amine]
6 | 0.0033 | 0.0262 | NC1=N[C@@H](CCc2ccc(Nc3cccc4cccc(Cl)c34)cc2)CO1 [Example 5, (S)-4-(4-(8-Chloronaphthalen-1-ylamino)phenethyl)-4,5-dihydrooxazol-2-amine]
7 | 0.0007 | 0.0019 | Cc1cc(CC[C@H]2COC(N)=N2)ccc1Nc1ncc(Cl)cn1 [Example 72, {4-[2-((S)-2-Amino-4,5-dihydro-oxazol-4-yl)-ethyl]-2-methyl-phenyl}-(5-chloro-pyrimidin-2-yl)-amine]
8 | 0.0007 | 0.0035 | Cc1cccc(Nc2ccc(CC[C@H]3COC(N)=N3)cc2)n1 [Example 25, {4-[2-((S)-2-Amino-4,5-dihydro-oxazol-4-yl)-ethyl]-phenyl}-(6-methyl-pyridin-2-yl)-amine]
9 | 0.0006 | 0.0021 | Cc1cc(Nc2ccc(CC[C@H]3COC(N)=N3)cc2)c2ncccc2c1 [Example 4, (S)-4-(4-(6-Methylquinolin-8-ylamino)phenethyl)-4,5-dihydrooxazol-2-amine]
10 | 0.0001 | 0.0021 | NC1=N[C@@H](CCc2ccc(Nc3cccc4ccccc34)cc2)CO1 [Example 2, (S)-4-(4-(Naphthalen-1-ylamino)phenethyl)-4,5-dihydrooxazol-2-amine]
11 | 0.0004 | 0.0005 | CC(C)(C)c1cnc(Nc2ccc(CC[C@H]3COC(N)=N3)cc2)nc1 [Example 57, (S)-4-(4-(5-tert-Butylpyrimidin-2-ylamino)phenethyl)-4,5-dihydrooxazol-2-amine]
12 | 0.0064 | 0.023 | NC1=N[C@@H](CCc2ccc(NC(c3cccc(F)c3)C(F)(F)F)cc2)CO1 (stereo partly drawn) [Example 66, (4S)-4-(4-(2,2,2-Trifluoro-1-(3-fluorophenyl)ethylamino)phenethyl)-4,5-dihydrooxazol-2-amine]
13 | 0.0004 | 0.0002 | NC1=N[C@@H](CCc2ccc(Nc3ccc(C(F)(F)F)cn3)cc2)CO1 [Example 11, {4-[2-((S)-2-Amino-4,5-dihydro-oxazol-4-yl)-ethyl]-phenyl}-(5-trifluoromethyl-pyridin-2-yl)-amine]
14 | 0.0012 | 0.0105 | Cc1cnc(Nc2ccc(CC[C@H]3COC(N)=N3)cc2)nc1 [Example 46, {4-[2-((S)-2-Amino-4,5-dihydro-oxazol-4-yl)-ethyl]-phenyl}-(5-methyl-pyrimidin-2-yl)-amine]
15 | 0.0146 | 0.046 | CS(=O)(=O)c1cnc(Nc2ccc(CC[C@H]3COC(N)=N3)cc2)nc1 [Example 74, (S)-4-(4-(5-(Methylsulfonyl)pyrimidin-2-ylamino)phenethyl)-4,5-dihydrooxazol-2-amine]
16 | – | 0.111 | N#Cc1ccc(N(c2ccc(CC[C@H]3COC(N)=N3)cc2)c2ccc(C#N)cn2)nc1 [Example 12, (S)-6,6′-(4-(2-(2-Amino-4,5-dihydrooxazol-4-yl)ethyl)phenylazanediyl)dinicotinonitrile]

Row | Structure (SMILES) | Ki (rat TAAR1) [µM] | Ki (mouse TAAR1) [µM]
17 | NC1=N[C@@H](CCc2ccc(Nc3ccc(Cl)cn3)cc2)CO1 [Example 15, {4-[2-((S)-2-Amino-4,5-dihydro-oxazol-4-yl)-ethyl]-phenyl}-(5-chloro-pyridin-2-yl)-amine] | 0.0001 | 0.0005
18 | NC1=N[C@@H](CCc2ccc(Nc3ncc(Cl)cn3)nc2)CO1 [Example 71, {5-[2-((S)-2-Amino-4,5-dihydro-oxazol-4-yl)-ethyl]-pyridin-2-yl}-(5-chloro-pyrimidin-2-yl)-amine] | 0.0011 | 0.0137
19 | NC1=N[C@@H](CCc2ccc(NC(c3cc(Cl)cc(Cl)c3)C(F)(F)F)cc2)CO1 (stereo partly drawn) [Example 69, (4S)-4-(4-(1-(3,5-Dichlorophenyl)-2,2,2-trifluoroethylamino)phenethyl)-4,5-dihydrooxazol-2-amine] | 0.0407 | 0.0355
20 | NC1=N[C@@H](CCc2ccc(Nc3ncccc3F)cc2)CO1 [Example 21, {4-[2-((S)-2-Amino-4,5-dihydro-oxazol-4-yl)-ethyl]-phenyl}-(3-fluoro-pyridin-2-yl)-amine] | 0.0005 | 0.02
21 | N#Cc1cnc(Nc2ccc(CC[C@H]3COC(N)=N3)cc2)nc1 [Example 59, 2-{4-[2-((S)-2-Amino-4,5-dihydro-oxazol-4-yl)-ethyl]-phenylamino}-pyrimidine-5-carbonitrile] | 0.0008 | 0.008
22 | N#Cc1cncc(Nc2ccc(CC[C@H]3COC(N)=N3)cc2)n1 [Example 31, 6-{4-[2-((S)-2-Amino-4,5-dihydro-oxazol-4-yl)-ethyl]-phenylamino}-pyrazine-2-carbonitrile] | 0.0059 | 0.0133
